Measured values published in US20260207602A1, “EGFR INHIBITORS” (Blueprint Medicines Corporation, priority 2022, published 2026).

Legend:
EGFR (d746-750) = biological target: T1, EGFR (d746-750) (Homo sapiens, UniProt P00533, DEL746-750); assay: Biochemical EGFR inhibition assay (Caliper mobility shift), EGFR (d746-750); settings: biochemical Caliper mobility shift assay, EGFR Exon 19-del enzyme; read-out: Enz EGFR Exon 19-del IC50
T1 construct: purchased SignalChem E10-122JG
Outline: (§1)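 Recombinant EGFR mutant phosphorylates 2.5 μM 5-FAM peptide at 1.0 mM ATP or ATP Km, in 100 mM HEPES pH 7.5, 10 mM MgCl2, 1 mM DTT, 1% DMSO, 25 °C to 10–20% conversion, EDTA stop. Caliper mobility shift separation; apparent IC50 from percent activity versus log concentration.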

[1] = biological target: intracellular phosphorylation of EGFR (Tyr1068) in PC-9 cells (Homo sapiens, UniProt P00533, DEL746-750); assay: PC-9 pEGFR AlphaLISA assay; type: cell-based; settings: 4 hours incubation, read-out: Phos EGFR PC9 IC50
Outline: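 PC-9 cells (EGFR del746-750) in phenol-free DMEM/10% FBS, adhered overnight, then exposed to 10-point 4-fold compound dilutions for 4 h at 37 °C. Lysates assayed for pEGFR Tyr1068 by AlphaLISA SureFire Ultra; IC50 from percent pEGFR inhibition vs log concentration.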

EGFR L858R = biological target: T2, EGFR L858R (Homo sapiens, UniProt P00533, L858R); assay: Biochemical EGFR inhibition assay (Caliper mobility shift), EGFR L858R; settings: biochemical Caliper mobility shift assay, EGFR L858R enzyme; read-out: Enz EGFR L858R IC50
T2 construct: purchased SignalChem E10-122BG
Outline: as §1

T1 sequence (P00533 with tags, fused parts or gaps DEL746-750 limits assumed): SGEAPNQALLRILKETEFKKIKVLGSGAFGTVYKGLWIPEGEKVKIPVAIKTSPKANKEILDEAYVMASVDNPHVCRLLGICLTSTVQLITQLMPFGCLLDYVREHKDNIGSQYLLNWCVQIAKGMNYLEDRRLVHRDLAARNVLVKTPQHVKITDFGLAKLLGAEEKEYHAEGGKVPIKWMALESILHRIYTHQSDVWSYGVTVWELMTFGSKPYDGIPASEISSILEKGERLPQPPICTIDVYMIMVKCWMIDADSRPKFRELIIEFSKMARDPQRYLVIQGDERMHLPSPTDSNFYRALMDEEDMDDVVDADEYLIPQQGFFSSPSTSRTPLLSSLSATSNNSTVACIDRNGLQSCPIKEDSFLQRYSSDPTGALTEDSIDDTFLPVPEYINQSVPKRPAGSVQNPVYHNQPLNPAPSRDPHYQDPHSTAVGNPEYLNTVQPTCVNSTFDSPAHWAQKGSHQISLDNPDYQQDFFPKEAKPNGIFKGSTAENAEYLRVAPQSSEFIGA
T2 sequence (P00533 25-1210 L858R): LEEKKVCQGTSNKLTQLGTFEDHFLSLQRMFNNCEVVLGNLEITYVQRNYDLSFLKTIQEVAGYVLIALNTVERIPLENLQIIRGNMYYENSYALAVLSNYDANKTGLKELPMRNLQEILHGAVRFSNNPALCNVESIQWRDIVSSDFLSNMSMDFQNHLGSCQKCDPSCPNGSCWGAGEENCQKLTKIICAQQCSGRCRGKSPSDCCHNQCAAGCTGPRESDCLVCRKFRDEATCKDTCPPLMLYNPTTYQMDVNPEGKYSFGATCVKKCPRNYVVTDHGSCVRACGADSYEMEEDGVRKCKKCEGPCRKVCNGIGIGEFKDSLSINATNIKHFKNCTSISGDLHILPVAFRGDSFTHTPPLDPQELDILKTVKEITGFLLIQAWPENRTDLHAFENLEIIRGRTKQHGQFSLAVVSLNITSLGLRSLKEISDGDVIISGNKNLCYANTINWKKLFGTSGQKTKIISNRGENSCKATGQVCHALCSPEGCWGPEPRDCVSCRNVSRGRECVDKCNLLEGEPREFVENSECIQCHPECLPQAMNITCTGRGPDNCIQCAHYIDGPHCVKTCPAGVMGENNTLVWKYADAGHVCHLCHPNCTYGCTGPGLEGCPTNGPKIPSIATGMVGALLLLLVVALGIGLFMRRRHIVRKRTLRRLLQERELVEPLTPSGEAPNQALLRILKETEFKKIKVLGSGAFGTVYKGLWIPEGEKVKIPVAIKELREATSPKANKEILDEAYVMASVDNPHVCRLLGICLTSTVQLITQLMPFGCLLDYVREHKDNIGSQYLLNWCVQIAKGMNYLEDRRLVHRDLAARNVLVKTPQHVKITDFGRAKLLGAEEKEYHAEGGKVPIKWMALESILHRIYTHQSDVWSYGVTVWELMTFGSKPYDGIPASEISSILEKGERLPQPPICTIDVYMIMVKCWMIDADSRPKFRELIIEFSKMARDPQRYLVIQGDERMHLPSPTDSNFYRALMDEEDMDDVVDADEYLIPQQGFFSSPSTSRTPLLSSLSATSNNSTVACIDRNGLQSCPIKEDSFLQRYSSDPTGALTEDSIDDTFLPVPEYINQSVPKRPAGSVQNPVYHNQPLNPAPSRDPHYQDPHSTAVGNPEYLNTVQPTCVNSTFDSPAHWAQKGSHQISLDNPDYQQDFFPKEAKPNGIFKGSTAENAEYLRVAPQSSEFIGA
Sequence of intracellular phosphorylation of EGFR (Tyr1068) in PC-9 cells (P00533 with tags, fused parts or gaps DEL746-750): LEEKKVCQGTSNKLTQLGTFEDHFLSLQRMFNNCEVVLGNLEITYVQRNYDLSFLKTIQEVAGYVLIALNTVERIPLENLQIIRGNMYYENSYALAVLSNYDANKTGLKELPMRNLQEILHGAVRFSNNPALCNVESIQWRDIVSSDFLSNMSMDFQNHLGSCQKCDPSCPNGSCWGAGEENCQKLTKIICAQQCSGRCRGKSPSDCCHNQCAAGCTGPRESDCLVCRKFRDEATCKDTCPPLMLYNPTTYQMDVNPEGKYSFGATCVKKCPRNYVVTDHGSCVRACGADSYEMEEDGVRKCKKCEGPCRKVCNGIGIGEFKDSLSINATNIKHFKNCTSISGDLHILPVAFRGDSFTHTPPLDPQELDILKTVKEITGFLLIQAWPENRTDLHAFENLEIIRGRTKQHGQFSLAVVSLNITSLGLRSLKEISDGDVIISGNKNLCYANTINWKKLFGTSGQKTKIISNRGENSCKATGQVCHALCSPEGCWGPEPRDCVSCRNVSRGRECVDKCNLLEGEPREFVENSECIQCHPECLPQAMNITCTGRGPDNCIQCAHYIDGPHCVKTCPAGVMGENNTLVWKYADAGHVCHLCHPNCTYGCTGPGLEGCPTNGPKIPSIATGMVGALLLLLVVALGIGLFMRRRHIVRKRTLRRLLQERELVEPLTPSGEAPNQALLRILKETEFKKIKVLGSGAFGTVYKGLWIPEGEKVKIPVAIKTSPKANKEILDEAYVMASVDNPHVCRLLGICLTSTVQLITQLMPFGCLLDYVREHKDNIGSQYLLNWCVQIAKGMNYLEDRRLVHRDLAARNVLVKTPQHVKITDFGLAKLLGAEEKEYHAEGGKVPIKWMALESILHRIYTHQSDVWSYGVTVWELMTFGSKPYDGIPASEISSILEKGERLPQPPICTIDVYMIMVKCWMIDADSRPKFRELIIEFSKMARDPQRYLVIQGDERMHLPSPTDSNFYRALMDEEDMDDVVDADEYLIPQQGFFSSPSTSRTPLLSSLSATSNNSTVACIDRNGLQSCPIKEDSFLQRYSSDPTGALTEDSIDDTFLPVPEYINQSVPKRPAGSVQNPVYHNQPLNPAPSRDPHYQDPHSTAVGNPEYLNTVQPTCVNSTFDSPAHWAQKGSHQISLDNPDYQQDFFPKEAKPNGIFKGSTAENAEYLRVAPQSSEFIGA

Row | Compound | IC50 (EGFR (d746-750)) [µM] | IC50 [1] [µM] | IC50 (EGFR L858R) [µM]
1 | CC[C@H](Oc1cc(-c2cnn(C)c2)cc2ncnc(Nc3ccc4ncsc4c3F)c12)C1CN(C)C1 (single isomer, unassigned) [Example 390] | > 0.0501 | > 0.0501 | > 0.0501
2 | CN1CCC[C@H](Oc2cc(-c3cn(C)nn3)cc3ncnc(Nc4ccc5ncsc5c4)c23)C1 [Example 247, (S)-N-(7-(1-methyl-1H-1,2,3-triazol-4-yl)-5-((1-methylpiperidin-3-yl)oxy)quinazolin-4-yl)benzo[d]thiazol-6-amine] | ≤ 0.01 | 0.0101 to 0.05 | ≤ 0.01
3 | CN1CCN(C(=O)COc2cc(-c3cnn(C)c3)cc3ncnc(Nc4ccc5ncsc5c4F)c23)CC1 [Example 275, 2-((4-((7-fluorobenzo[d]thiazol-6-yl)amino)-7-(1-methyl-1H-pyrazol-4-yl)quinazolin-5-yl)oxy)-1-(4-methylpiperazin-1-yl)ethan-1-one] | ≤ 0.01 | 0.0101 to 0.05 | ≤ 0.01
4 | CN1CCC[C@@H](Oc2cc(-c3cnn(C)c3)cc3ncnc(Nc4ccc5ncsc5c4)c23)C1 (single isomer, unassigned) [Example 47] | ≤ 0.01 | 0.0101 to 0.05 | ≤ 0.01
5 | COc1cc2ncnc(Nc3ccc4ncsc4c3)c2cc1-c1cnn([C@@H]2CCNC[C@@H]2F)c1 (racemic) [Example 164, cis-N-(6-(1-((3R,4S)-3-fluoropiperidin-4-yl)-1H-pyrazol-4-yl)-7-methoxyquinazolin-4-yl)benzo[d]thiazol-6-amine] | ≤ 0.01 | 0.0101 to 0.05 | ≤ 0.01
6 | c1nc(Nc2ccc3ncsc3c2)c2c(OC3CCOCC3)cc(N3CC4CC(C3)O4)cc2n1 [Example 199, N-(7-(6-oxa-3-azabicyclo[3.1.1]heptan-3-yl)-5-((tetrahydro-2H-pyran-4-yl)oxy)quinazolin-4-yl)benzo[d]thiazol-6-amine] | ≤ 0.01 | 0.0101 to 0.05 | ≤ 0.01
7 | CN1CCC(C)(COc2cc(-c3cnn(C)c3)cc3ncnc(Nc4ccc5ncsc5c4)c23)C1=O (stereo not drawn) [Example 54, 3-(((4-(benzo[d]thiazol-6-ylamino)-7-(1-methyl-1H-pyrazol-4-yl)quinazolin-5-yl)oxy)methyl)-1,3-dimethylpyrrolidin-2-one] | ≤ 0.01 | 0.0101 to 0.05 | ≤ 0.01
8 | Cn1cc(-c2cc(OCC(F)(F)F)c3c(Nc4ccc5ncsc5c4)ncnc3c2)cn1 [Example 50, N-(7-(1-methyl-1H-pyrazol-4-yl)-5-(2,2,2-trifluoroethoxy)quinazolin-4-yl)benzo[d]thiazol-6-amine] | ≤ 0.01 | 0.0101 to 0.05 | ≤ 0.01
9 | Cn1cc(-c2cc(O[C@H]3CCNC[C@@H]3F)c3c(Nc4ccc5ncsc5c4)ncnc3c2)cn1 (single isomer, unassigned) [Example 346] | ≤ 0.01 | ≤ 0.01 | ≤ 0.01
10 | Cn1cc(-c2cc(OC3CCN(C4CCOCC4)CC3)c3c(Nc4ccc5ncsc5c4)ncnc3c2)cn1 [Example 412, N-(7-(1-methyl-1H-pyrazol-4-yl)-5-((1-(tetrahydro-2H-pyran-4-yl)piperidin-4-yl)oxy)quinazolin-4-yl)benzo[d]thiazol-6-amine] | ≤ 0.01 | 0.0101 to 0.05 | 0.0101 to 0.05
11 | CN1CCC2(COC2)[C@H](Oc2cc(-c3cnn(C)c3)cc3ncnc(Nc4ccc5ncsc5c4)c23)C1 (single isomer, unassigned) [Example 354] | ≤ 0.01 | 0.0101 to 0.05 | 0.0101 to 0.05
12 | C[C@H](CN(C)C)Oc1cc(N2CC[C@@H](C(C)(C)O)C2)cc2ncnc(Nc3ccc4ncsc4c3)c12 (single isomer, unassigned) [Example 155] | ≤ 0.01 | ≤ 0.01 | ≤ 0.01
13 | Cn1cc(-c2cc(O[C@H]3CC[C@H]3O)c3c(Nc4ccc5ncsc5c4)ncnc3c2)cn1 [Example 185, (1R,2S)-2-((4-(benzo[d]thiazol-6-ylamino)-7-(1-methyl-1H-pyrazol-4-yl)quinazolin-5-yl)oxy)cyclobutan-1-ol] | ≤ 0.01 | ≤ 0.01 | ≤ 0.01
14 | C[C@@H]1CN(c2cc(O[C@H](C)C3COC3)c3c(Nc4ccc5ncsc5c4F)ncnc3c2)CCN1 (single isomer, unassigned) [Example 101] | 0.0101 to 0.05 | 0.0101 to 0.05 | 0.0101 to 0.05
15 | C[C@@H]1CN(c2cc(O[C@H](C)C3COC3)c3c(Nc4ccc5ncsc5c4F)ncnc3c2)CCN1 (single isomer, unassigned) [Example 100] | ≤ 0.01 | 0.0101 to 0.05 | 0.0101 to 0.05
16 | COc1cn(C)nc1-c1cc(O[C@H]2CCCN(C)C2)c2c(Nc3ccc4ncsc4c3)ncnc2c1 [Example 245, (S)-N-(7-(4-methoxy-1-methyl-1H-pyrazol-3-yl)-5-((1-methylpiperidin-3-yl)oxy)quinazolin-4-yl)benzo[d]thiazol-6-amine] | ≤ 0.01 | 0.0101 to 0.05 | ≤ 0.01
17 | Cn1cc(-c2cc(O[C@H]3C[C@H](O)C3)c3c(Nc4ccc5ncsc5c4)ncnc3c2)cn1 [Example 19, trans-3-((4-(benzo[d]thiazol-6-ylamino)-7-(1-methyl-1H-pyrazol-4-yl)quinazolin-5-yl)oxy)cyclobutan-1-ol] | ≤ 0.01 | ≤ 0.01 | ≤ 0.01
18 | Cn1cc(-c2cc(O[C@@H]3CC[C@H]3O)c3c(Nc4ccc5ncsc5c4)ncnc3c2)cn1 (single isomer, unassigned) [Example A54] | ≤ 0.01 | 0.0101 to 0.05 | ≤ 0.01
19 | COc1cc2ncnc(Nc3ccc4ncsc4c3)c2cc1NC(=O)N1C[C@H]2CCN(C)[C@H]2C1 [Example 251, (3aR,6aR)-N-(4-(benzo[d]thiazol-6-ylamino)-7-methoxyquinazolin-6-yl)-1-methylhexahydropyrrolo[3,4-b]pyrrole-5(1H)-carboxamide] | ≤ 0.01 | 0.0101 to 0.05 | ≤ 0.01
20 | C[C@H]1[C@H](Oc2cc(-c3cnn(C)c3)cc3ncnc(Nc4ccc5ncsc5c4)c23)CN1C (single isomer, unassigned) [Example 321] | ≤ 0.01 | 0.0101 to 0.05 | 0.0101 to 0.05
21 | CN1CC[C@H](O)[C@@H](Oc2cc(-c3cnn(C)c3)cc3ncnc(Nc4ccc5ncsc5c4)c23)C1 (single isomer, unassigned) [Example A34] | ≤ 0.01 | > 0.0501 | 0.0101 to 0.05
22 | C[C@H]1COCC[C@H]1Oc1cc(-c2cnn(C)c2)cc2ncnc(Nc3ccc4ncsc4c3)c12 (racemic) [Example 25, cis-racemic N-(7-(1-methyl-1H-pyrazol-4-yl)-5-(((3S,4R)-3-methyltetrahydro-2H-pyran-4-yl)oxy)quinazolin-4-yl)benzo[d]thiazol-6-amine] | ≤ 0.01 | 0.0101 to 0.05 | ≤ 0.01
23 | C[C@@H](Oc1cc(-c2cnn(C)c2)cc2ncnc(Nc3ccc4ncsc4c3F)c12)C1CN(C)C1 (single isomer, unassigned) [Example 387] | ≤ 0.01 | ≤ 0.01 | ≤ 0.01
24 | Cn1cc(-c2cc(O[C@@H]3CCOC[C@@H]3F)c3c(Nc4ccc5ncsc5c4)ncnc3c2)cn1 (single isomer, unassigned) [Example 43] | ≤ 0.01 | 0.0101 to 0.05 | ≤ 0.01
25 | CN1CCC(Oc2cc(-c3ccc(S(C)(=O)=O)cc3)cc3ncnc(Nc4ccc5ncsc5c4)c23)CC1 [Example 243, N-(5-((1-methylpiperidin-4-yl)oxy)-7-(4-(methylsulfonyl)phenyl)quinazolin-4-yl)benzo[d]thiazol-6-amine] | 0.0101 to 0.05 | 0.0101 to 0.05 | 0.0101 to 0.05
26 | Cn1cc(-c2cc(O[C@H]3CCNC[C@@H]3F)c3c(Nc4ccc5ncsc5c4)ncnc3c2)c(OC(F)F)n1 (racemic) [Example 370, N-(7-(3-(difluoromethoxy)-1-methyl-1H-pyrazol-4-yl)-5-(((3S,4S)-3-fluoropiperidin-4-yl)oxy)quinazolin-4-yl)benzo[d]thiazol-6-amine] | ≤ 0.01 | ≤ 0.01 | ≤ 0.01
27 | Cn1cc(-c2cc(O[C@H]3C[C@@H](O)C3)c3c(Nc4ccc5ncsc5c4)ncnc3c2)cn1 [Example 20, cis-3-((4-(benzo[d]thiazol-6-ylamino)-7-(1-methyl-1H-pyrazol-4-yl)quinazolin-5-yl)oxy)cyclobutan-1-ol] | ≤ 0.01 | ≤ 0.01 | ≤ 0.01
28 | COc1nn(C)cc1-c1cc(O[C@H]2CCNC[C@H]2F)c2c(Nc3ccc4ncsc4c3)ncnc2c1 [Example 365, N-(5-(((3R,4S)-3-fluoropiperidin-4-yl)oxy)-7-(3-methoxy-1-methyl-1H-pyrazol-4-yl)quinazolin-4-yl)benzo[d]thiazol-6-amine] | ≤ 0.01 | ≤ 0.01 | ≤ 0.01
29 | Cn1cc(-c2cc(OCC3COC3)c3c(Nc4ccc5ncsc5c4F)ncnc3c2)cn1 [Example 13, 7-fluoro-N-(7-(1-methyl-1H-pyrazol-4-yl)-5-(oxetan-3-ylmethoxy)quinazolin-4-yl)benzo[d]thiazol-6-amine] | ≤ 0.01 | ≤ 0.01 | ≤ 0.01
